Source: PubChem BioAssay AID330 (DTP/NCI, 2004)
Values joined by “and” are separate entries in the source; they are usually repeats but may differ in a detail not shown here. Equal values may be shown once. Toxic doses and inconclusive results are not listed. Rule for the calls: active = survival T/C of 150% or more; inactive = T/C below 125% in these data.

Tested on: P388 leukemia ip, CD2F1 mice, survival T/C
Assay: NCI In Vivo Anticancer Drug Screen. Data for tumor model P388 Leukemia (intraperitoneal) in CD2F1 (CDF1) mice
Conditions: endpoint: median survival time, higher = longer survival
Procedure, shortened: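 Mice carrying the transplanted tumor received test compound or vehicle. Survival was recorded in each group, and the value is the treated-group measurement divided by that of the vehicle-treated control group.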

[1] = dose: 60.0 mg/kg/injection, schedule: Q01DX005 (ip), vehicle: saline
[2] = dose: 120.0 mg/kg/injection, schedule: Q01DX005 (ip), vehicle: saline
[3] = dose: 25.0 mg/kg/injection, schedule: Q01DX005 (ip), vehicle: saline with Tween-80
[4] = dose: 50.0 mg/kg/injection, schedule: Q01DX005 (ip), vehicle: saline with Tween-80
[5] = dose: 100.0 mg/kg/injection, schedule: Q01DX005 (ip), vehicle: saline with Tween-80
[6] = dose: 50.0 mg/kg/injection, schedule: Q01DX009 (ip), vehicle: Klucel (hydroxypropylcellulose) (HPC)
[7] = dose: 100.0 mg/kg/injection, schedule: Q01DX009 (ip), vehicle: Klucel (hydroxypropylcellulose) (HPC)
[8] = dose: 200.0 mg/kg/injection, schedule: Q01DX009 (ip), vehicle: Klucel (hydroxypropylcellulose) (HPC)
[9] = dose: 200.0 mg/kg/injection, schedule: Q01DX005 (ip), vehicle: saline with Tween-80
[10] = dose: 50.0 mg/kg/injection, schedule: Q01DX009 (ip), vehicle: saline
[11] = dose: 100.0 mg/kg/injection, schedule: Q01DX009 (ip), vehicle: saline
[12] = dose: 200.0 mg/kg/injection, schedule: Q01DX009 (ip), vehicle: saline
[13] = dose: 12.5 mg/kg/injection, schedule: Q01DX005 (ip), vehicle: saline with Tween-80
[14] = dose: 60.0 mg/kg/injection, schedule: Q01DX005 (ip), vehicle: Klucel (hydroxypropylcellulose) (HPC)
[15] = dose: 120.0 mg/kg/injection, schedule: Q01DX005 (ip), vehicle: Klucel (hydroxypropylcellulose) (HPC)
[16] = dose: 240.0 mg/kg/injection, schedule: Q01DX005 (ip), vehicle: Klucel (hydroxypropylcellulose) (HPC)

Measured: T/C

CCOC(=O)NNS(=O)(=O)CCC(NC(=O)OCc1ccccc1)C(=O)OCc1ccccc1 (stereo not drawn)
inactive: dose: 12.5 mg/kg/injection, schedule: Q01DX009 (ip), vehicle: other 96 % of control | dose: 25.0 mg/kg/injection, schedule: Q01DX009 (ip), vehicle: other 104 % of control | dose: 50.0 mg/kg/injection, schedule: Q01DX009 (ip), vehicle: other 104 % of control | dose: 100.0 mg/kg/injection, schedule: Q01DX009 (ip), vehicle: other 104 % of control | dose: 200.0 mg/kg/injection, schedule: Q01DX009 (ip), vehicle: other 104 % of control

Cc1ccc(OP(=O)(Oc2ccc(C)cc2)Oc2ccc(C)cc2)cc1.Cc1ccc(OP(=O)(Oc2ccc(C)cc2)Oc2ccc(C)cc2)cc1.Cc1ccc(OP(=O)(Oc2ccc(C)cc2)Oc2ccc(C)cc2)cc1.Cc1ccc(OP(=O)(Oc2ccc(C)cc2)Oc2ccc(C)cc2)cc1.[Nd+3].[O-][Cl+3]([O-])([O-])O
inactive: dose: 100.0 mg/kg/injection, schedule: Q01DX001 (ip), vehicle: Klucel (hydroxypropylcellulose) (HPC) 90 % of control | dose: 200.0 mg/kg/injection, schedule: Q01DX001 (ip), vehicle: Klucel (hydroxypropylcellulose) (HPC) 91 % of control | dose: 400.0 mg/kg/injection, schedule: Q01DX001 (ip), vehicle: Klucel (hydroxypropylcellulose) (HPC) 86 % of control

Fc1cccc(NC(=S)SCc2ccco2)c1
inactive: dose: 50.0 mg/kg/injection, schedule: Q01DX009 (ip), vehicle: suspension in saline 93 % of control | dose: 100.0 mg/kg/injection, schedule: Q01DX009 (ip), vehicle: suspension in saline 90 % of control | dose: 200.0 mg/kg/injection, schedule: Q01DX009 (ip), vehicle: suspension in saline 107 % of control

c1ccc2c(SCCCCSc3c4ccccc4nc4ccccc34)c3ccccc3nc2c1
inactive: [1] 113 % of control | [2] 98 % of control | dose: 240.0 mg/kg/injection, schedule: Q01DX005 (ip), vehicle: saline 89 % of control

O=CNc1ccc2c(c1)Cc1cc(Br)ccc1-2
inactive: dose: 25.0 mg/kg/injection, schedule: Q01DX009 (ip), vehicle: saline with Tween-80 93 % of control | dose: 50.0 mg/kg/injection, schedule: Q01DX009 (ip), vehicle: saline with Tween-80 98 % of control | dose: 100.0 mg/kg/injection, schedule: Q01DX009 (ip), vehicle: saline with Tween-80 93 % of control | dose: 200.0 mg/kg/injection, schedule: Q01DX009 (ip), vehicle: saline with Tween-80 88 % of control

O=C(Nc1cccc2ccccc12)ON1C(=O)c2ccccc2C1=O
inactive: [3] 92 % of control | [4] 99 % of control and 113 % of control and 96 % of control | [5] 110 % of control and 119 % of control

C1N2CN3CN1CN(C2)C3
inactive: dose: 50.0 mg/kg/injection, schedule: Q01DX005 (ip), vehicle: saline 95 % of control | dose: 100.0 mg/kg/injection, schedule: Q01DX005 (ip), vehicle: saline 101 % of control | dose: 200.0 mg/kg/injection, schedule: Q01DX005 (ip), vehicle: saline 96 % of control

c1ccc2c(c1)Sc1ccccc1N2Cc1cnc[nH]1
inactive: [6] 101 % of control | dose: 50.0 mg/kg/injection, schedule: Q01DX009 (ip), vehicle: alcohol 114 % of control | [7] 109 % of control | dose: 100.0 mg/kg/injection, schedule: Q01DX009 (ip), vehicle: alcohol 114 % of control | [8] 118 % of control

COc1cccc(/C=N/NP(=S)(Oc2ccc(C(C)(C)C)cc2)Oc2ccc(C(C)(C)C)cc2)c1OC
inactive: [4] 98 % of control | [5] 95 % of control | [9] 100 % of control

C[CH2][Ge]1([CH2]C)[CH2]CC2(CCN(CCCN(C)C)C2)C[CH2]1
inactive: dose: 0.09 mg/kg/injection, schedule: Q01DX009 (ip), vehicle: saline 103 % of control | dose: 0.19 mg/kg/injection, schedule: Q01DX009 (ip), vehicle: saline 103 % of control and 98 % of control | dose: 0.39 mg/kg/injection, schedule: Q01DX009 (ip), vehicle: saline 101 % of control and 103 % of control | dose: 0.78 mg/kg/injection, schedule: Q01DX009 (ip), vehicle: saline 100 % of control and 104 % of control | dose: 1.56 mg/kg/injection, schedule: Q01DX009 (ip), vehicle: saline 100 % of control and 92 % of control | dose: 3.12 mg/kg/injection, schedule: Q01DX009 (ip), vehicle: saline 104 % of control and 98 % of control | dose: 6.25 mg/kg/injection, schedule: Q01DX009 (ip), vehicle: saline 104 % of control | dose: 6.28 mg/kg/injection, schedule: Q01DX009 (ip), vehicle: water 101 % of control | dose: 12.5 mg/kg/injection, schedule: Q01DX009 (ip), vehicle: saline 101 % of control and 104 % of control | dose: 12.5 mg/kg/injection, schedule: Q01DX009 (ip), vehicle: water 106 % of control | dose: 25.0 mg/kg/injection, schedule: Q01DX009 (ip), vehicle: saline 100 % of control and 105 % of control | dose: 25.0 mg/kg/injection, schedule: Q01DX009 (ip), vehicle: water 107 % of control | [10] 100 % of control and 98 % of control | dose: 50.0 mg/kg/injection, schedule: Q01DX009 (ip), vehicle: water 123 % of control | dose: 75.0 mg/kg/injection, schedule: Q01DX009 (ip), vehicle: saline 103 % of control and 104 % of control

[Ni+2].[S-]CC[S-]
inactive: dose: 100.0 mg/kg/injection, schedule: Q04DX003 (ip), vehicle: saline with Tween-80 92 % of control | dose: 200.0 mg/kg/injection, schedule: Q04DX003 (ip), vehicle: saline with Tween-80 108 % of control

CCCCCCCCC(=O)C(=O)c1ccc(O)cc1O
inactive: [6] 113 % of control | [7] 113 % of control | [8] 113 % of control

O=C(Nc1ccc(Cl)cc1)/C(Cl)=C1/Sc2ccccc2NC1=O
inactive: dose: 100.0 mg/kg/injection, schedule: Q01DX001 (ip), vehicle: saline with Tween-80 97 % of control | dose: 200.0 mg/kg/injection, schedule: Q01DX001 (ip), vehicle: saline with Tween-80 91 % of control | dose: 400.0 mg/kg/injection, schedule: Q01DX001 (ip), vehicle: saline with Tween-80 91 % of control

C=CC(=O)NC(C)(C)CC(=O)O
inactive: [10] 100 % of control | [11] 100 % of control | [12] 99 % of control

OC1CN(Cc2ccccc2)C[C@@H]1O (stereo partly drawn)
inactive: [1] 100 % of control | [2] 96 % of control

COC(=O)[C@@]1(O)CC(OC)=CC1=O
inactive: dose: 5.0 mg/kg/injection, schedule: Q01DX005 (ip), vehicle: Klucel (hydroxypropylcellulose) (HPC) 93 % of control | dose: 10.0 mg/kg/injection, schedule: Q01DX005 (ip), vehicle: Klucel (hydroxypropylcellulose) (HPC) 95 % of control | dose: 20.0 mg/kg/injection, schedule: Q01DX005 (ip), vehicle: Klucel (hydroxypropylcellulose) (HPC) 100 % of control | dose: 40.0 mg/kg/injection, schedule: Q01DX005 (ip), vehicle: Klucel (hydroxypropylcellulose) (HPC) 93 % of control | dose: 80.0 mg/kg/injection, schedule: Q01DX005 (ip), vehicle: Klucel (hydroxypropylcellulose) (HPC) 98 % of control

CCN(CC)CCOc1ccc(C(C)=O)cc1
inactive: [3] 99 % of control | [4] 92 % of control | [5] 101 % of control

CC1=NN(c2ccccc2)C(=O)C1N=Nc1ccccc1S(=O)(=O)O (stereo not drawn)
inactive: [10] 108 % of control | [11] 109 % of control | [12] 111 % of control

COC(=O)C1=CC(=O)N2C(=Nc3cccc4cccc2c34)S1
inactive: dose: 6.25 mg/kg/injection, schedule: Q01DX005 (ip), vehicle: saline with Tween-80 91 % of control | [13] 94 % of control | [3] 103 % of control | [5] 99 % of control | [9] 103 % of control

Cc1nc(N)nc(N)c1-c1ccc(N)cc1
inactive: [13] 105 % of control | [3] 103 % of control | [4] 98 % of control and 105 % of control

O=c1oc2ccccc2c2c1cnn2-c1ccccc1
inactive: [14] 103 % of control | [15] 105 % of control | [16] 104 % of control

CCCCCCCCCCCCCCCc1cccc(OC)c1C(=O)O
inactive: dose: 7.5 mg/kg/injection, schedule: Q01DX009 (ip), vehicle: saline with Tween-80 107 % of control | dose: 15.0 mg/kg/injection, schedule: Q01DX009 (ip), vehicle: saline with Tween-80 113 % of control | dose: 30.0 mg/kg/injection, schedule: Q01DX009 (ip), vehicle: saline with Tween-80 116 % of control

COc1ccc(N=Nc2ncc(N)nc2N)cc1
inactive: [14] 107 % of control | [15] 108 % of control | [16] 96 % of control
